Reference: PubChem BioAssay (NCI)
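These data come from cells grown in 96-well plates and exposed to compound for 48 hours at five concentrations. Here, GI50 denotes the concentration required for 50% inhibition of growth. TGI: total growth inhibition.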

Assays:
Assay in all cases: growth of human tumour cells (NCI), 48 h
786-0 renal = test system: 786-0 renal
A498 renal = test system: A498 renal
A549 NSCLC = test system: A549 NSCLC
ACHN renal = test system: ACHN renal
BT-549 breast = test system: BT-549 breast
CAKI-1 renal = test system: CAKI-1 renal
CCRF-CEM leukemia = test system: CCRF-CEM leukemia
COLO 205 colon = test system: COLO 205 colon
DU-145 prostate = test system: DU-145 prostate
EKVX NSCLC = test system: EKVX NSCLC
HCC-2998 colon = test system: HCC-2998 colon
HCT-116 colon = test system: HCT-116 colon
HCT-15 colon = test system: HCT-15 colon
HL-60(TB) leukemia = test system: HL-60(TB) leukemia
HOP-62 NSCLC = test system: HOP-62 NSCLC
HOP-92 NSCLC = test system: HOP-92 NSCLC
HS 578T breast = test system: HS 578T breast
HT29 colon = test system: HT29 colon
IGROV1 ovarian = test system: IGROV1 ovarian
K-562 leukemia = test system: K-562 leukemia
KM12 colon = test system: KM12 colon
LOX IMVI melanoma = test system: LOX IMVI melanoma
M14 melanoma = test system: M14 melanoma
MALME-3M melanoma = test system: MALME-3M melanoma
MCF7 breast = test system: MCF7 breast
MDA-MB-231 breast = test system: MDA-MB-231 breast
MDA-MB-435 = test system: MDA-MB-435
MOLT-4 leukemia = test system: MOLT-4 leukemia
NCI-H226 lung = test system: NCI-H226 lung
NCI-H23 lung = test system: NCI-H23 lung
NCI-H460 lung = test system: NCI-H460 lung
NCI-H522 lung = test system: NCI-H522 lung
NCI/ADR-RES ovarian = test system: NCI/ADR-RES ovarian
OVCAR-3 ovarian = test system: OVCAR-3 ovarian
OVCAR-4 ovarian = test system: OVCAR-4 ovarian
OVCAR-5 ovarian = test system: OVCAR-5 ovarian
OVCAR-8 ovarian = test system: OVCAR-8 ovarian
PC-3 prostate = test system: PC-3 prostate
RPMI-8226 leukemia = test system: RPMI-8226 leukemia
RXF 393 renal = test system: RXF 393 renal
SF-268 CNS = test system: SF-268 CNS
SF-295 CNS = test system: SF-295 CNS
SF-539 CNS = test system: SF-539 CNS
SK-MEL-2 melanoma = test system: SK-MEL-2 melanoma
SK-MEL-28 melanoma = test system: SK-MEL-28 melanoma
SK-MEL-5 melanoma = test system: SK-MEL-5 melanoma
SK-OV-3 ovarian = test system: SK-OV-3 ovarian
SN12C renal = test system: SN12C renal
SNB-19 CNS = test system: SNB-19 CNS
SNB-75 CNS = test system: SNB-75 CNS
SR leukemia = test system: SR leukemia
SW-620 colon = test system: SW-620 colon
T-47D breast = test system: T-47D breast
TK-10 renal = test system: TK-10 renal
U251 CNS = test system: U251 CNS
UACC-257 melanoma = test system: UACC-257 melanoma
UACC-62 melanoma = test system: UACC-62 melanoma
UO-31 renal = test system: UO-31 renal

In the case of `FC(F)(F)CNc1nccc(-c2cnn3ncccc23)n1`, the GI50 (786-0 renal) is reported as 9.67 µM, the TGI (786-0 renal) is reported as > 25 µM and the GI50 (A498 renal) is reported as 3.85 µM. For the same molecule, the TGI (A498 renal) was > 22.6 µM, the GI50 (A549 NSCLC) was 10.3 µM and the TGI (A549 NSCLC) was > 25 µM. For the same molecule, the GI50 (ACHN renal) was 6.41 µM, the TGI (ACHN renal) was > 25 µM and the GI50 (BT-549 breast) was > 14.1 µM. The TGI (BT-549 breast) was > 25 µM, the GI50 (CAKI-1 renal) was 15.9 µM and the TGI (CAKI-1 renal) was > 25 µM. The GI50 (CCRF-CEM leukemia) was > 18.9 µM, the TGI (CCRF-CEM leukemia) was > 25 µM and the GI50 (COLO 205 colon) was 8.58 µM. For the same molecule, the TGI (COLO 205 colon) was > 25 µM, the GI50 (DU-145 prostate) was 12 µM and the TGI (DU-145 prostate) was > 25 µM. The GI50 (EKVX NSCLC) was 15.1 µM, the TGI (EKVX NSCLC) was > 25 µM and the GI50 (HCC-2998 colon) was > 25 µM. The TGI (HCC-2998 colon) was > 25 µM, the GI50 (HCT-116 colon) was 8.3 µM and the TGI (HCT-116 colon) was > 25 µM. For the same molecule, the GI50 (HCT-15 colon) was 16.1 µM, the TGI (HCT-15 colon) was > 25 µM and the GI50 (HL-60(TB) leukemia) was 8.35 µM. The TGI (HL-60(TB) leukemia) was > 19.9 µM, the GI50 (HOP-62 NSCLC) was > 13.6 µM and the TGI (HOP-62 NSCLC) was > 25 µM. For the same molecule, the GI50 (HOP-92 NSCLC) was 6.13 µM, the TGI (HOP-92 NSCLC) was > 25 µM and the GI50 (HS 578T breast) was 8.14 µM. The TGI (HS 578T breast) was > 25 µM, the GI50 (HT29 colon) was 16.3 µM and the TGI (HT29 colon) was > 25 µM. The GI50 (IGROV1 ovarian) was 11.9 µM, the TGI (IGROV1 ovarian) was > 25 µM and the GI50 (K-562 leukemia) was > 25 µM. The TGI (K-562 leukemia) was > 25 µM, the GI50 (KM12 colon) was 9.54 µM and the TGI (KM12 colon) was > 25 µM. For the same molecule, the GI50 (LOX IMVI melanoma) was 10.7 µM, the TGI (LOX IMVI melanoma) was > 25 µM and the GI50 (M14 melanoma) was 11.5 µM. The TGI (M14 melanoma) was > 25 µM, the GI50 (MALME-3M melanoma) was > 25 µM and the TGI (MALME-3M melanoma) was > 25 µM. The GI50 (MCF7 breast) was 7.3 µM, the TGI (MCF7 breast) was > 25 µM and the GI50 (MDA-MB-231 breast) was > 25 µM. The TGI (MDA-MB-231 breast) was > 25 µM, the GI50 (MDA-MB-435) was 13.7 µM and the TGI (MDA-MB-435) was > 25 µM. The GI50 (MOLT-4 leukemia) was > 25 µM, the TGI (MOLT-4 leukemia) was > 25 µM and the GI50 (NCI-H226 lung) was 12.6 µM. For the same molecule, the TGI (NCI-H226 lung) was > 25 µM, the GI50 (NCI-H23 lung) was 9.54 µM and the TGI (NCI-H23 lung) was > 25 µM. The GI50 (NCI-H460 lung) was 10.2 µM, the TGI (NCI-H460 lung) was > 25 µM and the GI50 (NCI-H522 lung) was 9.91 µM. The TGI (NCI-H522 lung) was > 25 µM, the GI50 (NCI/ADR-RES ovarian) was 13.6 µM and the TGI (NCI/ADR-RES ovarian) was > 25 µM. The GI50 (OVCAR-3 ovarian) was 10.5 µM, the TGI (OVCAR-3 ovarian) was > 25 µM and the GI50 (OVCAR-4 ovarian) was > 25 µM. The TGI (OVCAR-4 ovarian) was > 25 µM, the GI50 (OVCAR-5 ovarian) was 9.68 µM and the TGI (OVCAR-5 ovarian) was > 25 µM. For the same molecule, the GI50 (OVCAR-8 ovarian) was 8.58 µM, the TGI (OVCAR-8 ovarian) was > 25 µM and the GI50 (PC-3 prostate) was 24.5 µM. The TGI (PC-3 prostate) was > 25 µM, the GI50 (RPMI-8226 leukemia) was > 17.5 µM and the TGI (RPMI-8226 leukemia) was > 25 µM. The GI50 (RXF 393 renal) was 4.86 µM, the TGI (RXF 393 renal) was 12.4 µM and the GI50 (SF-268 CNS) was 8.24 µM. For the same molecule, the TGI (SF-268 CNS) was > 25 µM, the GI50 (SF-295 CNS) was 11.9 µM and the TGI (SF-295 CNS) was > 25 µM. The GI50 (SF-539 CNS) was 7.76 µM, the TGI (SF-539 CNS) was > 25 µM and the GI50 (SK-MEL-2 melanoma) was 8.72 µM. For the same molecule, the TGI (SK-MEL-2 melanoma) was > 25 µM, the GI50 (SK-MEL-28 melanoma) was 8.13 µM and the TGI (SK-MEL-28 melanoma) was > 25 µM. The GI50 (SK-MEL-5 melanoma) was 10.5 µM, the TGI (SK-MEL-5 melanoma) was > 25 µM and the GI50 (SK-OV-3 ovarian) was > 25 µM. The TGI (SK-OV-3 ovarian) was > 25 µM, the GI50 (SN12C renal) was 14.5 µM and the TGI (SN12C renal) was > 25 µM. The GI50 (SNB-19 CNS) was 12.7 µM, the TGI (SNB-19 CNS) was > 25 µM and the GI50 (SNB-75 CNS) was 11.3 µM. For the same molecule, the TGI (SNB-75 CNS) was > 25 µM, the GI50 (SR leukemia) was 6.88 µM and the TGI (SR leukemia) was > 25 µM. For the same molecule, the GI50 (SW-620 colon) was 10.9 µM, the TGI (SW-620 colon) was > 25 µM and the GI50 (T-47D breast) was 8.93 µM. For the same molecule, the TGI (T-47D breast) was > 25 µM, the GI50 (TK-10 renal) was 10.3 µM and the TGI (TK-10 renal) was > 25 µM. For the same molecule, the GI50 (U251 CNS) was 9.82 µM, the TGI (U251 CNS) was > 25 µM and the GI50 (UACC-257 melanoma) was > 19.2 µM. The TGI (UACC-257 melanoma) was > 25 µM, the GI50 (UACC-62 melanoma) was 10.9 µM and the TGI (UACC-62 melanoma) was > 25 µM. The GI50 (UO-31 renal) was 15.3 µM and the TGI (UO-31 renal) was > 25 µM.
